This is an account of results in patent publication US20260098061A1, “EPHA2-BINDING PENDING PEPTIDE AND COMPOSITION COMPRISING SAME” (PeptiDream Inc., priority 2022, published 2026).

Numbered stars: 1 amine (or outer) side, 2 acyl side, 3 side chain; on linkers, the order of the positions; unused ones are H or OH. Bridge positions count the residues as written; N and C are the ends. Square brackets hold non-standard residues; d marks the D form. Side chains are listed from the residue outwards. Peptide text beside a SMILES is read from it. * marks the point of attachment. Trp(1-Me,7-Cl) = Cn1cc(C[C@H](N)C(=O)O)c2cccc(Cl)c21; dPhe(3-CONH2) = NC(=O)c1cccc(C[C@@H](N)C(=O)O)c1; NMePhe(4-Cl) = CN[C@@H](Cc1ccc(Cl)cc1)C(=O)O; Piperazinyl(4-CH2COOH) = O=C(O)CN1CCN(*)CC1; Trp(1-Me) = Cn1cc(C[C@H](N)C(=O)O)c2ccccc21; NMe3Pal = CN[C@@H](Cc1cccnc1)C(=O)O; NMeF = CN[C@@H](Cc1ccccc1)C(=O)O; hArg = N=C(N)NCCCC[C@H](N)C(=O)O; hCit = NC(=O)NCCCC[C@H](N)C(=O)O; Gly(cBu) = N[C@H](C(=O)O)C1CCC1; NMeE = CN[C@@H](CCC(=O)O)C(=O)O; Aad = N[C@@H](CCCC(=O)O)C(=O)O; NMeN = CN[C@@H](CC(N)=O)C(=O)O; Chg = N[C@H](C(=O)O)C1CCCCC1; CO = O=C([*:1])[*:2] A value given as a limit tells only on which side of the number the result lay.

In the assay the target is T1, Recombinant Human EphA2 Fc Protein (Homo sapiens, UniProt P29317).
T1 construct: purchased Elabscience
Briefly: SPR interaction analysis (Biacore T200), kinetics of peptides against EphA2. To be noted: Recombinant Human EphA2 Fc Protein captured by Human Antibody Capture kit; single-cycle kinetics; 25° C.; HBS-P+ buffer with 1% DMSO. Format: binding. The method in brief: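 KD derived from ka and kd, fitted on baseline-subtracted sensorgrams from single-cycle kinetics of five peptide dilutions. Running buffer: HBS-P+ (pH 7.4) plus 1% DMSO, 25° C, Biacore T200. Recombinant human EphA2-Fc held on an antibody capture surface.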
(In general: Surface plasmon resonance follows binding to a sensor surface in real time, without labels.)

With `C[C@H]1NC(=O)CSC[C@@H](C(N)=O)NC(=O)[C@H](CCCC(N)=O)NC(=O)[C@H]([C@@H](C)O)NC(=O)[C@H](Cc2cn(C)c3ccccc23)NC(=O)[C@H](CCCCNC(=O)N2CCN(CC(=O)O)CC2)NC(=O)[C@H](Cc2cn(C)c3ccccc23)NC(=O)[C@H](Cc2ccccc2)N(C)C(=O)[C@H](CC(=O)N(C)C)NC(=O)[C@H](C2CCCCC2)NC(=O)[C@H](CC(N)=O)NC(=O)[C@H](Cc2cccnc2)N(C)C1=O` [PDC_EphA2-00018537, da-Me3Py-N-Chg-Ndm-MeF-W1Me-KCOpipzaa-W1Me-T-Hgn-C-NH2] ({CH2CO}-[dA][NMe3Pal]N[Chg]D(NMe2)[NMeF][Trp(1-Me)]K([CO-Piperazinyl(4-CH2COOH)])[Trp(1-Me)]T[Aad](NH2)C-NH2; thioether N-12), the Kd was less than 1 nM. As for `C[C@H]1NC(=O)CSC[C@@H](C(N)=O)NC(=O)[C@H](CCCC(N)=O)NC(=O)[C@H]([C@@H](C)O)NC(=O)[C@H](Cc2cn(C)c3ccccc23)NC(=O)[C@H](CCCCNC(=O)N2CCN(CC(=O)O)CC2)NC(=O)[C@H](Cc2cn(C)c3ccccc23)NC(=O)[C@H](Cc2ccc(Cl)cc2)N(C)C(=O)[C@H](CCCC(N)=O)NC(=O)[C@H](C2CCCCC2)NC(=O)[C@H](CC(N)=O)NC(=O)[C@H](Cc2cccnc2)N(C)C1=O` [PDC_EphA2-00018538, da-Me3Py-N-Chg-Hgn-MeF4C-W1Me-KCOpipzaa-W1Me-T-Hgn-C-NH2] ({CH2CO}-[dA][NMe3Pal]N[Chg][Aad](NH2)[NMePhe(4-Cl)][Trp(1-Me)]K([CO-Piperazinyl(4-CH2COOH)])[Trp(1-Me)]T[Aad](NH2)C-NH2; thioether N-12), the dissociation constant (Kd) is less than 1 nM. Regarding `CNC(=O)C[C@@H]1NC(=O)[C@H]([C@@H](C)O)NC(=O)[C@H](Cc2cn(C)c3ccccc23)NC(=O)[C@H](CCCCNC(=O)N2CCN(CC(=O)O)CC2)NC(=O)[C@H](Cc2cn(C)c3ccccc23)NC(=O)[C@H](Cc2ccccc2)N(C)C(=O)[C@H](CCCC(N)=O)NC(=O)[C@H](C2CCCCC2)NC(=O)[C@H](CC(N)=O)NC(=O)[C@H](Cc2cccnc2)N(C)C(=O)[C@@H](C)NC(=O)CSC[C@@H](C(N)=O)NC1=O` [PDC_EphA2-00018539, da-Me3Py-N-Chg-Hgn-MeF-W1Me-KCOpipzaa-W1Me-T-Nmm-C-NH2] ({CH2CO}-[dA][NMe3Pal]N[Chg][Aad](NH2)[NMeF][Trp(1-Me)]K([CO-Piperazinyl(4-CH2COOH)])[Trp(1-Me)]TD(NHMe)C-NH2; thioether N-12), the Kd is less than 1 nM. As for `C[C@H]1NC(=O)CSC[C@@H](C(N)=O)NC(=O)[C@H](CC(=O)N(C)C)NC(=O)[C@H]([C@@H](C)O)NC(=O)[C@H](Cc2cn(C)c3ccccc23)NC(=O)[C@H](CCCCNC(=O)N2CCN(CC(=O)O)CC2)NC(=O)[C@H](Cc2cn(C)c3ccccc23)NC(=O)[C@H](Cc2ccccc2)N(C)C(=O)[C@H](CCCC(N)=O)NC(=O)[C@H](C2CCCCC2)NC(=O)[C@H](CC(N)=O)NC(=O)[C@H](Cc2cccnc2)N(C)C1=O` [PDC_EphA2-00018540, da-Me3Py-N-Chg-Hgn-MeF-W1Me-KCOpipzaa-W1Me-T-Ndm-C-NH2] ({CH2CO}-[dA][NMe3Pal]N[Chg][Aad](NH2)[NMeF][Trp(1-Me)]K([CO-Piperazinyl(4-CH2COOH)])[Trp(1-Me)]TD(NMe2)C-NH2; thioether N-12), the Kd was less than 1 nM. As for `CC(C)[C@@H]1NC(=O)[C@H](Cc2cn(C)c3c(Cl)cccc23)NC(=O)[C@H](CC(N)=O)N(C)C(=O)[C@H](CCCC(N)=O)NC(=O)[C@H](C2CCC2)NC(=O)[C@H](CC(N)=O)NC(=O)[C@H](Cc2ccccc2)N(C)C(=O)[C@@H](Cc2cccc(C(N)=O)c2)NC(=O)CSC[C@@H](C(N)=O)NC(=O)[C@H](CCCC(N)=O)NC(=O)[C@H]([C@@H](C)O)NC(=O)[C@H](Cc2cn(C)c3ccccc23)NC1=O` [PDC_EphA2-00019421, df3CON-MeF-N-Cbg-Hgn-MeN-W1Me7Cl-V-W1Me-T-Hgn-C-NH2] ({CH2CO}-[dPhe(3-CONH2)][NMeF]N[Gly(cBu)][Aad](NH2)[NMeN][Trp(1-Me,7-Cl)]V[Trp(1-Me)]T[Aad](NH2)C-NH2; thioether N-12), the figure is less than 1 nM; as for `CC(C)C[C@@H]1NC(=O)[C@H](CC(N)=O)NC(=O)[C@H](Cc2ccccc2)N(C)C(=O)[C@@H](Cc2cccc(C(N)=O)c2)NC(=O)CSC[C@@H](C(N)=O)NC(=O)[C@H](CCCC(N)=O)NC(=O)[C@H]([C@@H](C)O)NC(=O)[C@H](Cc2cn(C)c3ccccc23)NC(=O)[C@H](C(C)C)NC(=O)[C@H](Cc2cn(C)c3c(Cl)cccc23)NC(=O)[C@H](CC(N)=O)N(C)C(=O)[C@H](CCCC(N)=O)NC1=O` [PDC_EphA2-00019422, df3CON-MeF-N-L-Hgn-MeN-W1Me7Cl-V-W1Me-T-Hgn-C-NH2] ({CH2CO}-[dPhe(3-CONH2)][NMeF]NL[Aad](NH2)[NMeN][Trp(1-Me,7-Cl)]V[Trp(1-Me)]T[Aad](NH2)C-NH2; thioether N-12), less than 1 nM; as for `CC(C)C[C@@H]1NC(=O)[C@H](CC(N)=O)NC(=O)[C@H](Cc2ccccc2)N(C)C(=O)[C@@H](Cc2cccc(C(N)=O)c2)NC(=O)CSC[C@@H](C(N)=O)NC(=O)[C@H](CCCC(N)=O)NC(=O)[C@H]([C@@H](C)O)NC(=O)[C@H](Cc2cn(C)c3ccccc23)NC(=O)[C@H](C(C)C)NC(=O)[C@H](Cc2cn(C)c3ccccc23)NC(=O)[C@H](CC(N)=O)N(C)C(=O)[C@H](CCCC(N)=O)NC1=O` [PDC_EphA2-00019423, df3CON-MeF-N-L-Hgn-MeN-W1Me-V-W1Me-T-Hgn-C-NH2] ({CH2CO}-[dPhe(3-CONH2)][NMeF]NL[Aad](NH2)[NMeN][Trp(1-Me)]V[Trp(1-Me)]T[Aad](NH2)C-NH2; thioether N-12), less than 1 nM. As for `CC(C)[C@@H]1NC(=O)[C@H](Cc2cn(C)c3c(Cl)cccc23)NC(=O)[C@H](CC(N)=O)N(C)C(=O)[C@H](CCCC(N)=O)NC(=O)[C@H](C2CCC2)NC(=O)[C@H](CC(N)=O)NC(=O)[C@H](Cc2cccnc2)N(C)C(=O)[C@@H](Cc2cccc(C(N)=O)c2)NC(=O)CSC[C@@H](C(N)=O)NC(=O)[C@H](CCCC(N)=O)NC(=O)[C@H]([C@@H](C)O)NC(=O)[C@H](Cc2cn(C)c3ccccc23)NC1=O` [PDC_EphA2-00019424, df3CON-Me3Py-N-Cbg-Hgn-MeN-W1Me7Cl-V-W1Me-T-Hgn-C-NH2] ({CH2CO}-[dPhe(3-CONH2)][NMe3Pal]N[Gly(cBu)][Aad](NH2)[NMeN][Trp(1-Me,7-Cl)]V[Trp(1-Me)]T[Aad](NH2)C-NH2; thioether N-12), the Kd is less than 1 nM. Regarding `C[C@@H](O)[C@@H]1NC(=O)[C@H](Cc2cn(C)c3ccccc23)NC(=O)[C@H](CCCCNC(=O)N2CCN(CC(=O)O)CC2)NC(=O)[C@H](Cc2cn(C)c3c(Cl)cccc23)NC(=O)[C@H](CC(N)=O)N(C)C(=O)[C@H](CCCC(N)=O)NC(=O)[C@H](C2CCC2)NC(=O)[C@H](CC(N)=O)NC(=O)[C@H](Cc2ccccc2)N(C)C(=O)[C@@H](Cc2cccc(C(N)=O)c2)NC(=O)CSC[C@@H](C(N)=O)NC(=O)[C@H](CCCC(N)=O)NC1=O` [PDC_EphA2-00019425, df3CON-MeF-N-Cbg-Hgn-MeN-W1Me7Cl-KCOpipzaa-W1Me-T-Hgn-C-NH2] ({CH2CO}-[dPhe(3-CONH2)][NMeF]N[Gly(cBu)][Aad](NH2)[NMeN][Trp(1-Me,7-Cl)]K([CO-Piperazinyl(4-CH2COOH)])[Trp(1-Me)]T[Aad](NH2)C-NH2; thioether N-12), the Kd was less than 1 nM.

As for `C[C@@H](O)[C@@H]1NC(=O)[C@H](Cc2cn(C)c3ccccc23)NC(=O)[C@H](CCCCNC(N)=O)NC(=O)[C@H](Cc2cn(C)c3c(Cl)cccc23)NC(=O)[C@H](CCC(=O)O)N(C)C(=O)[C@H](CCCC(N)=O)NC(=O)[C@H](C2CCC2)NC(=O)[C@H](CC(N)=O)NC(=O)[C@H](Cc2ccccc2)N(C)C(=O)[C@@H](Cc2cccc(C(N)=O)c2)NC(=O)CSC[C@@H](C(N)=O)NC(=O)[C@H](CCCCNC(=N)N)NC1=O` [PDC_EphA2-00019426, df3CON-MeF-N-Cbg-Hgn-MeN-W1Me7Cl-Hcit-W1Me-T-Hgn-C-NH2] ({CH2CO}-[dPhe(3-CONH2)][NMeF]N[Gly(cBu)][Aad](NH2)[NMeE][Trp(1-Me,7-Cl)][hCit][Trp(1-Me)]T[hArg]C-NH2; thioether N-12), the Kd was less than 1 nM. `C[C@@H](O)[C@@H]1NC(=O)[C@H](Cc2cn(C)c3ccccc23)NC(=O)[C@H](CCCCNC(N)=O)NC(=O)[C@H](Cc2cn(C)c3c(Cl)cccc23)NC(=O)[C@H](CC(N)=O)N(C)C(=O)[C@H](CCCC(N)=O)NC(=O)[C@H](C2CCC2)NC(=O)[C@H](CC(N)=O)NC(=O)[C@H](Cc2cccnc2)N(C)C(=O)[C@@H](Cc2cccc(C(N)=O)c2)NC(=O)CSC[C@@H](C(N)=O)NC(=O)[C@H](CCCNC(=N)N)NC1=O` [PDC_EphA2-00019428, df3CON-Me3Py-N-Cbg-Hgn-MeN-W1Me7Cl-Hcit-W1Me-T-R-C-NH2] ({CH2CO}-[dPhe(3-CONH2)][NMe3Pal]N[Gly(cBu)][Aad](NH2)[NMeN][Trp(1-Me,7-Cl)][hCit][Trp(1-Me)]TRC-NH2; thioether N-12): the Kd was less than 1 nM. Take `C[C@@H](O)[C@@H]1NC(=O)[C@H](Cc2cn(C)c3ccccc23)NC(=O)[C@H](CCCCNC(N)=O)NC(=O)[C@H](Cc2cn(C)c3c(Cl)cccc23)NC(=O)[C@H](CC(N)=O)N(C)C(=O)[C@H](CCCC(N)=O)NC(=O)[C@H](C2CCC2)NC(=O)[C@H](CC(N)=O)NC(=O)[C@H](Cc2cccnc2)N(C)C(=O)[C@@H](Cc2cccc(C(N)=O)c2)NC(=O)CSC[C@@H](C(N)=O)NC(=O)[C@H](CCCCNC(=N)N)NC1=O` [PDC_EphA2-00019429, df3CON-Me3Py-N-Cbg-Hgn-MeN-W1Me7Cl-Hcit-W1Me-T-Har-C-NH2] ({CH2CO}-[dPhe(3-CONH2)][NMe3Pal]N[Gly(cBu)][Aad](NH2)[NMeN][Trp(1-Me,7-Cl)][hCit][Trp(1-Me)]T[hArg]C-NH2; thioether N-12): the Kd was less than 1 nM.

As usually defined, the Kd is the free concentration of one partner at which half of the binding sites on the other are occupied at equilibrium, for simple one-to-one binding.
